This note sets out measurements from US20100056515A1, “BENZIMIDAZOLE COMPOUNDS” (priority 2006, published 2010).

The target of one data set is T1, human CRF receptor (Homo sapiens, UniProt P34998).
T1 construct: expressed in transfected cells; host or cells: CHO cells (membrane fraction)
T1 sequence (P34998 24-415): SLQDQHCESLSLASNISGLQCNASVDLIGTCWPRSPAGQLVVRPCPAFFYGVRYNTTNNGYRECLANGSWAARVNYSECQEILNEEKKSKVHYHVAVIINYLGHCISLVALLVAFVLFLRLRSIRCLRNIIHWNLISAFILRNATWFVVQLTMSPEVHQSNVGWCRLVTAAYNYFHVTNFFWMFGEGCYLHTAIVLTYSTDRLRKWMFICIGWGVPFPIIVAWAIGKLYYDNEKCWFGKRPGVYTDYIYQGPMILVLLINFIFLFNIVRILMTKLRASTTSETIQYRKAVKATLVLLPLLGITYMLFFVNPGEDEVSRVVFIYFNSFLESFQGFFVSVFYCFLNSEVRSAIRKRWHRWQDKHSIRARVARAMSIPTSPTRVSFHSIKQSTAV
Briefly: Measurement of CRF Binding Inhibitory Rate (receptor binding experiment with 125I-CRF). As to conditions: human CRF receptor expressing CHO cellular membrane fraction; 50 pM ovine 125I-CRF; 0.05 nM to 10 μM of compound; room temperature 1.5 hr; read-out: IC50 values (CRF binding inhibition). The protocol:
Measurement of CRF Binding Inhibitory Rate
A receptor binding experiment was carried out using a human CRF receptor expressing CHO cellular membrane fraction and ovine CRF, [^125I]-tyr^0(^125I-CRF). 1000 nM of a test compound was incubated with 1 μg of human CRF receptor expressing CHO cellular membrane fraction and 50 pM of ^125I-CRF in a binding assay buffer (50 mM Tris-HCl, 5 mM EDTA, 10 mM MgCl2, 0.05% CHAPS, 0.1% BSA, 0.5 mM PMSF, 0.1 μg/mL pepstatin, 20 μg/mL leupeptin, pH 7.5). In addition, for measuring nonspecific binding (NSB), 0.1 μM unlabelled human Urocortin was incubated with 5 μg of human CRF receptor expressing CHO cellular membrane fraction and 50 pM of ^125I-CRF in a binding assay buffer. After a binding reaction was carried out at room temperature for 1.5 hr, the membrane was entrapped on a glass filter (UniFilter plate GF-C/Perkin Elmer) by suction filtration using a cell harvester (Perkin Elmer), and washed with ice-cooled 50 mM Tris-HCl (pH 7.5). After drying the glass filter, a liquid scintillation cocktail (Microscinti 0, Perkin Elmer) was added, and the radioactivity of ^125I-CRF remaining on a glass filter was measured using Topcount (Perkin Elmer).
(TB-SB)/(TB-NSB)×100 (SB: radioactivity when a compound is added, TB: maximum binding radioactivity, NSB: nonspecific binding radioactivity) were calculated to obtain binding inhibitory rates under the range of the presence from 0.05 nM to 10 μM of each compounds. The IC50 values were calculated by using GraphPad Prism software.

The structures appear in SMILES notation.

Compound `CCC(CC)c1ccc(OC)c2nc(Oc3c(Cl)cc(N(C)C)cc3Cl)n(C)c12` [Example 2, 3,5-Dichloro-4-{[7-(1-ethylpropyl)-4-methoxy-1-methyl-1H-benzimidazol-2-yl]oxy}-N,N-dimethylaniline] registered a melting point of 176 to 177 °C. Moreover, the IC50 on human CRF receptor is under 1000 nM.

As to `CCC(CC)c1ccc(OC)c2nc(Oc3ccc(N(C)C)cc3Cl)n(C)c12` [Example 3, 3-Chloro-4-{[7-(1-ethylpropyl)-4-methoxy-1-methyl-1H-benzimidazol-2-yl]oxy}-N,N-dimethylaniline], the melting point lay in the range of 122 to 123 °C. For the same compound, at human CRF receptor, the IC50 was under 1000 nM.

Compound `CCC(CC)c1ccc(OC)c2nc(Oc3ccc(Cl)cc3N(C)C)n(C)c12` [Example 4, 5-Chloro-2-{[7-(1-ethylpropyl)-4-methoxy-1-methyl-1H-benzimidazol-2-yl]oxy}-N,N-dimethylaniline] yielded a melting point of 122 to 123 °C. The IC50 on human CRF receptor is under 1000 nM.

For the compound `CCC(CC)c1ccc(OC)c2nc(Oc3ccc(C)nc3N(C)C)n(C)c12` [Example 5, 3-{[7-(1-Ethylpropyl)-4-methoxy-1-methyl-1H-benzimidazol-2-yl]oxy}-N,N,6-trimethylpyridin-2-amine], the melting point is 143 to 144 °C. In addition, the IC50 at human CRF receptor was under 1000 nM.

In turn, `CCC(CC)c1ccc(OC)c2nc(Oc3ccc(C(C)=O)cc3C)n(C)c12` [Example 6, 1-(4-{[7-(1-Ethylpropyl)-4-methoxy-1-methyl-1H-benzimidazol-2-yl]oxy}-3-methylphenyl)ethanone] yielded a melting point of 114 to 115 °C. The IC50 on human CRF receptor was under 1000 nM.

For `CCC(CC)c1ccc(OC)c2nc(Oc3c(Cl)cc(Cl)cc3N(C)C)n(C)c12` [Example 7, 3,5-Dichloro-2-{[7-(1-ethylpropyl)-4-methoxy-1-methyl-1H-benzimidazol-2-yl]oxy}-N,N-dimethylaniline], the melting point fell in the range of 173 to 175 °C. Further, the IC50 on human CRF receptor was under 1000 nM.

Regarding `CCC(CC)c1ccc(OC)c2nc(Oc3ccc(OC(F)(F)F)cc3Br)n(C)c12` [Example 10, 2-[2-Bromo-4-(trifluoromethoxy)phenoxy]-7-(1-ethylpropyl)-4-methoxy-1-methyl-1H-benzimidazole], the melting point lay within 117 to 118 °C. Moreover, the IC50 at human CRF receptor was under 1000 nM.

As to `CCC(CC)c1ccc(OC)c2nc(Oc3ccc(C(F)(F)F)cc3N(C)C)n(C)c12` [Example 12, 2-{[7-(1-Ethylpropyl)-4-methoxy-1-methyl-1H-benzimidazol-2-yl]oxy}-N,N-dimethyl-5-(trifluoromethyl)aniline], the melting point was in the range of 131 to 133 °C. Further, the IC50 at human CRF receptor was under 1000 nM.

Consider `CCC(CC)c1ccc(OC)c2nc(Oc3ccc(OC(F)(F)F)cc3CN(C)C)n(C)c12` [Example 13, 1-[2-{[7-(1-Ethylpropyl)-4-methoxy-1-methyl-1H-benzimidazol-2-yl]oxy}-5-(trifluoromethoxy)phenyl]-N,N-dimethylmethanamine], for which the melting point lay within 95 to 97 °C. In addition, the concentration for half-maximal inhibition (IC50) on human CRF receptor is under 1000 nM.

`CCC(CC)c1ccc(OC)c2nc(Oc3c(C)cc(OC(F)(F)F)cc3CN(C)C)n(C)c12.Cl` [Example 15, 1-[2-{[7-(1-Ethylpropyl)-4-methoxy-1-methyl-1H-benzimidazol-2-yl]oxy}-3-methyl-5-(trifluoromethoxy)phenyl]-N,N-dimethylmethanamine Hydrochloride] gave a melting point of 92 to 94 °C. Also, the IC50 at human CRF receptor is under 1000 nM.

In turn, `CCC(CC)c1ccc(OC)c2nc(Nc3ccc(Cl)cc3Br)n(C)c12` [Example 19, N-(2-Bromo-4-chlorophenyl)-7-(1-ethylpropyl)-4-methoxy-1-methyl-1H-benzimidazol-2-amine] had a melting point of 193 to 195 °C. Also, the IC50 at human CRF receptor is under 1000 nM.

Regarding `CCC(CC)c1ccc(OC)c2nc(Nc3ccc(Cl)cc3Cl)n(C)c12` [Example 20, N-(2,4-Dichlorophenyl)-7-(1-ethylpropyl)-4-methoxy-1-methyl-1H-benzimidazol-2-amine], the melting point was in the range of 198 to 200 °C. Also, the IC50 on human CRF receptor is under 1000 nM.

Compound `CCC(CC)c1ccc(Cl)c2nc(Oc3c(Cl)cc(Cl)cc3N(C)C)n(C)c12` [Example 24, 3,5-Dichloro-2-{[4-chloro-7-(1-ethylpropyl)-1-methyl-1H-benzimidazol-2-yl]oxy}-N,N-dimethylaniline] showed a melting point of 172 to 173 °C. Further, the IC50 at human CRF receptor was under 1000 nM.

Compound `CCC(CC)c1ccc(Cl)c2nc(Oc3c(Cl)cc(Cl)cc3N3CCOCC3)n(C)c12` [Example 25, 4-Chloro-2-(2,4-dichloro-6-morpholin-4-ylphenoxy)-7-(1-ethylpropyl)-1-methyl-1H-benzimidazole] registered a melting point of 155 to 157 °C. For the same compound, the IC50 on human CRF receptor was under 1000 nM.

`CCC(CC)c1ccc(Cl)c2nc(Oc3c(Cl)cc(Cl)cc3N3CCN(C)CC3)n(C)c12` [Example 26, 4-Chloro-2-[2,4-dichloro-6-(4-methylpiperazin-1-yl)phenoxy]-7-(1-ethylpropyl)-1-methyl-1H-benzimidazole] gave a melting point of 162 to 164 °C. Besides, at human CRF receptor, the IC50 is under 1000 nM.

The compound `CCC(CC)c1ccc(Cl)c2nc(Oc3c(Cl)cc(Cl)cc3-n3ccnc3)n(C)c12` [Example 27, 4-Chloro-2-[2,4-dichloro-6-(1H-imidazol-1-yl)phenoxy]-7-(1-ethylpropyl)-1-methyl-1H-benzimidazole] gave a melting point of 134 to 135 °C. The IC50 at human CRF receptor is under 1000 nM.

Take `CCC(CC)c1ccc(Cl)c2nc(Oc3c(Cl)cc(Cl)cc3N3CCCC3)n(C)c12` [Example 29, 4-Chloro-2-(2,4-dichloro-6-pyrrolidin-1-ylphenoxy)-7-(1-ethylpropyl)-1-methyl-1H-benzimidazole]: the melting point lay in the range of 209 to 210 °C. In addition, at human CRF receptor, the IC50 was under 1000 nM.

For the compound `CCC(CC)c1ccc(OC)c2nc(Oc3ccc(OC(F)(F)F)cc3N(C)C)n(C)c12` [Example 30, 2-{[7-(1-Ethylpropyl)-4-methoxy-1-methyl-1H-benzimidazol-2-yl]oxy}-N,N-dimethyl-5-(trifluoromethoxy)aniline], the melting point lay within 93 to 95 °C. Further, the IC50 on human CRF receptor was under 1000 nM.

For `CCC(CC)c1ccc(Cl)c2nc(Oc3c(Cl)cc(Cl)cc3C#N)n(C)c12` [Example 31, 3,5-Dichloro-2-{[4-chloro-7-(1-ethylpropyl)-1-methyl-1H-benzimidazol-2-yl]oxy}benzonitrile], the melting point was 155 to 156 °C. For the same compound, the IC50 at human CRF receptor was under 1000 nM.

`CCC(CC)c1ccc(Cl)c2nc(Oc3c(Cl)cc(Cl)cc3S(N)(=O)=O)n(C)c12` [Example 32, 3,5-Dichloro-2-{[4-chloro-7-(1-ethylpropyl)-1-methyl-1H-5 benzimidazol-2-yl]oxy}benzenesulfonamide] displayed a melting point of 133 to 134 °C. Further, at human CRF receptor, the IC50 is under 1000 nM.

As to `CCC(CC)c1ccc(Cl)c2nc(Nc3c(C)cc(Cl)cc3OC)[nH]c12` [Example 67, 4-Chloro-N-(4-chloro-2-methoxy-6-methylphenyl)-7-(1-ethylpropyl)-1H-benzimidazol-2-amine], the IC50 at human CRF receptor was under 1000 nM.

For `CCC(CC)c1ccc(Cl)c2nc(Oc3c(Br)cc(C(F)(F)F)nc3C)n(C)c12` [Example 75, 2-{[4-Bromo-2-methyl-6-(trifluoromethyl)pyridin-3-yl]oxy}-4-chloro-7-(1-ethylpropyl)-1-methyl-1H-benzimidazole], the IC50 on human CRF receptor is under 1000 nM.

Take `CCC(CC)c1ccc(Cl)c2nc(Oc3c(C(F)(F)F)cc(C(F)(F)F)nc3C)n(C)c12` [Example 76, 4-Chloro-7-(1-ethylpropyl)-1-methyl-2-{[2-methyl-4,6-bis(trifluoromethyl)pyridin-3-yl]oxy}-1H-benzimidazole]: on human CRF receptor, the IC50 is under 1000 nM.

For `CCC(CC)c1ccc(Cl)c2nc(Oc3c(C)cc(OC(F)(F)F)cc3CN(C)C)n(C)c12` [Example 84, 1-[2-{[4-Chloro-7-(1-ethylpropyl)-1-methyl-1H-benzimidazol-2-yl]oxy}-3-methyl-5-(trifluoromethoxy)phenyl]-N,N-dimethylmethanamine], the IC50 on human CRF receptor is under 1000 nM.

In the case of `CCC(CC)c1ccc(O)c2nc(Nc3c(C)cc(Cl)cc3Cl)n(C)c12` [Example 90, 2-[(2,4-Dichloro-6-methylphenyl)amino]-7-(1-ethylpropyl)-1-methyl-1H-benzimidazol-4-ol], the IC50 on human CRF receptor was under 1000 nM.

Usually melting point stands for the temperature of the solid-liquid transition. As usually defined, the IC50 is the concentration needed to halve the response being measured.
